One assay has as its target T1, human CD73 (Homo sapiens, UniProt P21589).
T1 construct: expressed in transfected cells
T1 sequence (P21589 27-549): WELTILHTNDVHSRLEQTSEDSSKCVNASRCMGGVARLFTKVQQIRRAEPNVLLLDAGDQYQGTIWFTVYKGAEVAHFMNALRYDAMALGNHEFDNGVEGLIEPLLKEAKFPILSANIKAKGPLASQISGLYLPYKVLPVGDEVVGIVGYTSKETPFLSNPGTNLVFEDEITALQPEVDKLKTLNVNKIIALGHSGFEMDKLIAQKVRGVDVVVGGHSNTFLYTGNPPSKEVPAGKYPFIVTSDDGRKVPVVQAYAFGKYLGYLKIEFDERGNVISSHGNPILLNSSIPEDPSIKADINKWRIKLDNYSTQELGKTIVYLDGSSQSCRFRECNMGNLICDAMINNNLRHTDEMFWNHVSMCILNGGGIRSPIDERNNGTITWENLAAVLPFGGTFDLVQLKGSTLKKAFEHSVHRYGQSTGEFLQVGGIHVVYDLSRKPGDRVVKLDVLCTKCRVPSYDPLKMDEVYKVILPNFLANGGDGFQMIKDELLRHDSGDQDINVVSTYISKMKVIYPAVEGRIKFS
The experiment in a line: Inhibitor activity against CD73 in cell based assay (CD73 expressing CHO-K1 cells). The note with it: CHO-K1 cells expressing human CD73, 150 μM AMP, 4 hours of incubation; read-out: CHO-K1 CELL VARIANT: CD73 IC50. An outline of the steps:
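Residual supernatant AMP was quantified via CellTiter-Glo luminescence (1 μM ATP added, 30 min, room temperature) after a 4 h exposure of human CD73-expressing CHO-K1 cells to 150 μM AMP plus compound, top final 10 μM, 8 points. IC50 came from nonlinear regression of percent inhibition.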

Assay [1] has as its target T2, Human CD73 (amino acid residues 27-549) (Homo sapiens, UniProt P21589).
T2 construct: Human CD73 (amino acid residues 27-549); His tag (N); made in house; host or cells: E. coli
T2 sequence (P21589 27-549): T1 sequence (P21589 27-549)
The experiment in a line: CD73 enzymatic assay (luciferase-based indirect assay, CellTiter-Glo). The note with it: 0.4 nM CD73, 150 μM AMP, 1 hour at room temperature. Type of assay: biochemical. An outline of the steps: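 Residual AMP inhibits luciferase, so luminescence reports CD73 turnover; read with CellTiter-Glo 2.0 plus 1 μM final ATP, 30 min. Reaction used 0.4 nM N-His CD73 (27-549, E. coli), 150 μM AMP, HEPES pH 7.4 with Tween 20, 1 h at room temperature. IC50 fitted by nonlinear regression.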

Each structure is given as a SMILES string.

A word on the IC50: it is the concentration needed to halve the response being measured. Regarding `O=C(N[C@H]1CC[C@H](NS(=O)(=O)c2ccc3ncsc3c2)CC1)O[C@@H]1CCN(c2cn[nH]c(=O)c2Cl)C1` [P-0296, (R)-1-(5-chloro-6-oxo-1,6-dihydropyridazin-4-yl)pyrrolidin-3-yl ((1r,4R)-4-(benzo[d]thiazole-6-sulfonamido)cyclohexyl) carbamate], the IC50 (on human CD73; in assay [1]) was 0.001 to 10 µM each time.

With `O=C(N[C@H]1CC[C@H](NS(=O)(=O)c2c(F)cccc2F)CC1)O[C@@H]1CCN(c2cn[nH]c(=O)c2Cl)C1` [P-0297, (R)-1-(5-chloro-6-oxo-1,6-dihydropyridazin-4-yl)pyrrolidin-3-yl ((1r,4R)-4-((2,6-difluorophenyl)sulfonamido)cyclohexyl)carbamate], the IC50 (at human CD73; in assay [1]) was 0.001 to 10 µM in each case.

As for `O=C(N[C@H]1CC[C@H](NS(=O)(=O)c2cc(F)ccc2F)CC1)O[C@@H]1CCN(c2cn[nH]c(=O)c2Cl)C1` [P-0298, (R)-1-(5-chloro-6-oxo-1,6-dihydropyridazin-4-yl)pyrrolidin-3-yl ((1r,4R)-4-((2,5-difluorophenyl)sulfonamido)cyclohexyl)carbamate], the IC50 (at human CD73; in assay [1]) was 0.001 to 10 µM each time.

Regarding `O=C(N[C@H]1CC[C@H](NS(=O)(=O)c2ccsc2)CC1)O[C@@H]1CCN(c2cn[nH]c(=O)c2Cl)C1` [P-0299, (R)-1-(5-chloro-6-oxo-1,6-dihydropyridazin-4-yl)pyrrolidin-3-yl ((1r,4R)-4-(thiophene-3-sulfonamido)cyclohexyl) carbamate], the IC50 (on human CD73; in assay [1]) was 0.001 to 10 µM each time.

For `O=C(N[C@H]1CC[C@H](NS(=O)(=O)c2cccs2)CC1)O[C@@H]1CCN(c2cn[nH]c(=O)c2Cl)C1` [P-0300, (R)-1-(5-chloro-6-oxo-1,6-dihydropyridazin-4-yl)pyrrolidin-3-yl ((1r,4R)-4-(thiophene-2-sulfonamido)cyclohexyl) carbamate], the concentration for half-maximal inhibition (IC50) (at human CD73; in assay [1]) was 0.001 to 10 µM each time.

In the case of `O=C(N[C@H]1CC[C@H](NS(=O)(=O)c2ccc(Cl)s2)CC1)O[C@@H]1CCN(c2cn[nH]c(=O)c2Cl)C1` [P-0301, (R)-1-(5-chloro-6-oxo-1,6-dihydropyridazin-4-yl)pyrrolidin-3-yl ((1r,4R)-4-((5-chlorothiophene)-2-sulfonamido)cyclohexyl) carbamate], the IC50 (at human CD73; in assay [1]) was 0.001 to 10 µM each time.

As to `Cc1noc(C)c1S(=O)(=O)N[C@H]1CC[C@H](NC(=O)O[C@@H]2CCN(c3cn[nH]c(=O)c3Cl)C2)CC1` [P-0302, (R)-1-(5-chloro-6-oxo-1,6-dihydropyridazin-4-yl)pyrrolidin-3-yl ((1r,4R)-4-((3,5-dimethylisoxazole)-4-sulfonamido)cyclohexyl) carbamate], the IC50 (on human CD73; in assay [1]) was 0.001 to 10 µM throughout.

For the compound `COCCS(=O)(=O)N[C@H]1CC[C@H](NC(=O)O[C@@H]2CCN(c3cn[nH]c(=O)c3Cl)C2)CC1` [P-0303, (R)-1-(5-chloro-6-oxo-1,6-dihydropyridazin-4-yl)pyrrolidin-3-yl ((1r,4R)-4-((2-methoxyethyl)sulfonamido)cyclohexyl)carbamate], the IC50 (at human CD73; in assay [1]) was 0.001 to 10 µM in each case.

Regarding `O=C(N[C@H]1CC[C@H](NS(=O)(=O)CCC(F)(F)F)CC1)O[C@@H]1CCN(c2cn[nH]c(=O)c2Cl)C1` [P-0304, (R)-1-(5-chloro-6-oxo-1,6-dihydropyridazin-4-yl)pyrrolidin-3-yl ((1r,4R)-4-((3,3,3-trifluoropropyl)sulfonamido)cyclohexyl)carbamate], the IC50 (on human CD73; in assay [1]) was 0.001 to 10 µM throughout.

For the compound `O=C(N[C@H]1CC[C@H](NS(=O)(=O)CC(F)(F)F)CC1)O[C@@H]1CCN(c2cn[nH]c(=O)c2Cl)C1` [P-0305, (R)-1-(5-chloro-6-oxo-1,6-dihydropyridazin-4-yl)pyrrolidin-3-yl ((1r,4R)-4-((2,2,2-trifluoroethyl)sulfonamido)cyclohexyl)carbamate], the IC50 (on human CD73; in assay [1]) was 0.001 to 10 µM throughout.

Regarding `O=C(N[C@H]1CC[C@H](NS(=O)(=O)Cc2ccccc2)CC1)O[C@@H]1CCN(c2cn[nH]c(=O)c2Cl)C1` [P-0306, (R)-1-(5-chloro-6-oxo-1,6-dihydropyridazin-4-yl)pyrrolidin-3-yl ((1r,4R)-4-((phenylmethyl)sulfonamido)cyclohexyl)carbamate], the IC50 (at human CD73; in assay [1]) was 0.001 to 10 µM throughout.

`N#CCS(=O)(=O)N[C@H]1CC[C@H](NC(=O)O[C@@H]2CCN(c3cn[nH]c(=O)c3Cl)C2)CC1` [P-0307, (R)-1-(5-chloro-6-oxo-1,6-dihydropyridazin-4-yl)pyrrolidin-3-yl ((1r,4R)-4-((cyanomethyl)sulfonamido)cyclohexyl)carbamate]: the IC50 (at human CD73; in assay [1]) was 0.001 to 10 µM throughout.

Regarding `C=CS(=O)(=O)N[C@H]1CC[C@H](NC(=O)O[C@@H]2CCN(c3cn[nH]c(=O)c3Cl)C2)CC1` [P-0308, (R)-1-(5-chloro-6-oxo-1,6-dihydropyridazin-4-yl)pyrrolidin-3-yl ((1r,4R)-4-(vinylsulfonamido)cyclohexyl) carbamate], the IC50 (on human CD73; in assay [1]) was 0.001 to 10 µM each time.

For the compound `O=C(N[C@H]1CC[C@H](NS(=O)(=O)c2c[nH]cn2)CC1)O[C@@H]1CCN(c2cn[nH]c(=O)c2Cl)C1` [P-0309, (R)-1-(5-chloro-6-oxo-1,6-dihydropyridazin-4-yl)pyrrolidin-3-yl ((1r,4R)-4-(1H-imidazole-4-sulfonamido)cyclohexyl) carbamate], the IC50 (on human CD73; in assay [1]) was 0.001 to 10 µM in each case.

Take `CN1CCN(S(=O)(=O)N[C@H]2CC[C@H](NC(=O)O[C@@H]3CCN(c4cn[nH]c(=O)c4Cl)C3)CC2)CC1` [P-0310, (R)-1-(5-chloro-6-oxo-1,6-dihydropyridazin-4-yl)pyrrolidin-3-yl ((1r,4R)-4-((4-methylpiperazine)-1-sulfonamido)cyclohexyl) carbamate]: the IC50 (on human CD73; in assay [1]) was 0.001 to 10 µM in each case.

In the case of `CC(C)NS(=O)(=O)N[C@H]1CC[C@H](NC(=O)O[C@@H]2CCN(c3cn[nH]c(=O)c3Cl)C2)CC1` [P-0311, (R)-1-(5-chloro-6-oxo-1,6-dihydropyridazin-4-yl)pyrrolidin-3-yl ((1r,4R)-4-((N-isopropylsulfamoyl)amino)cyclohexyl)carbamate], the IC50 (on human CD73; in assay [1]) was 0.001 to 10 µM throughout.

As to `CNS(=O)(=O)N[C@H]1CC[C@H](NC(=O)O[C@@H]2CCN(c3cn[nH]c(=O)c3Cl)C2)CC1` [P-0312, (R)-1-(5-chloro-6-oxo-1,6-dihydropyridazin-4-yl)pyrrolidin-3-yl ((1r,4R)-4-((N-methylsulfamoyl)amino)cyclohexyl)carbamate], the IC50 (on human CD73; in assay [1]) was 0.001 to 10 µM each time.

`CC1(S(=O)(=O)N[C@H]2CC[C@H](NC(=O)O[C@@H]3CCN(c4cn[nH]c(=O)c4Cl)C3)CC2)CC1` [P-0313, (R)-1-(5-chloro-6-oxo-1,6-dihydropyridazin-4-yl)pyrrolidin-3-yl ((1r,4R)-4-((1-methylcyclopropane)-1-sulfonamido)cyclohexyl) carbamate]: the IC50 (on human CD73; in assay [1]) was 0.001 to 10 µM each time.

With `O=C(N[C@H]1CC[C@H](NC(=O)c2ccccc2F)CC1)O[C@@H]1CCN(c2cn[nH]c(=O)c2Cl)C1` [P-0314, (R)-1-(5-chloro-6-oxo-1,6-dihydropyridazin-4-yl)pyrrolidin-3-yl ((1r,4R)-4-(2-fluorobenzamido)cyclohexyl) carbamate], the IC50 (on human CD73; in assay [1]) was 0.001 to 10 µM each time.

For `O=C(N[C@H]1CC[C@H](NC(=O)c2cccc(F)c2)CC1)O[C@@H]1CCN(c2cn[nH]c(=O)c2Cl)C1` [P-0315, (R)-1-(5-chloro-6-oxo-1,6-dihydropyridazin-4-yl)pyrrolidin-3-yl ((1r,4R)-4-(3-fluorobenzamido)cyclohexyl) carbamate], the IC50 (at human CD73; in assay [1]) was 0.001 to 10 µM in each case.

On to `Cc1ccccc1C(=O)N[C@H]1CC[C@H](NC(=O)O[C@@H]2CCN(c3cn[nH]c(=O)c3Cl)C2)CC1` [P-0316, (R)-1-(5-chloro-6-oxo-1,6-dihydropyridazin-4-yl)pyrrolidin-3-yl ((1r,4R)-4-(2-methylbenzamido)cyclohexyl) carbamate], for which the IC50 (on human CD73; in assay [1]) was 0.001 to 10 µM in each case.

As for `Cc1cccc(C(=O)N[C@H]2CC[C@H](NC(=O)O[C@@H]3CCN(c4cn[nH]c(=O)c4Cl)C3)CC2)c1` [P-0317, (R)-1-(5-chloro-6-oxo-1,6-dihydropyridazin-4-yl)pyrrolidin-3-yl ((1r,4R)-4-(3-methylbenzamido)cyclohexyl) carbamate], the IC50 (at human CD73; in assay [1]) was 0.001 to 10 µM throughout.

Values taken from US12509444B2, “Compounds and methods for CD73 modulation and indications therefor” (Plexxikon Inc., priority 2019, dated 2025).
